In publication PMC6921082, “Molecular Characterization of a Novel Cold-Active Hormone-Sensitive Lipase (HaHSL) from Halocynthiibacter Arcticus” (Biomolecules, 2019):

Target: T1, HaHSL (Falsihalocynthiibacter arcticus, UniProt A0A126UZB4)
T1 construct: gene RC74_09005; full-length ORF (789 bp); mass peak 31,740; monomer; catalytic Ser138, Glu216, His244
Test: p-nitrophenol release at […] nm, Lineweaver-Burk
Type: biochemical
Conditions: free enzyme; 20 mM Tris-HCl, 100 mM NaCl, pH 7.4 (spectroscopic analyses); standard assay pH 8.0, 25 °C

T1 sequence (A0A126UZB4 entry or part of it): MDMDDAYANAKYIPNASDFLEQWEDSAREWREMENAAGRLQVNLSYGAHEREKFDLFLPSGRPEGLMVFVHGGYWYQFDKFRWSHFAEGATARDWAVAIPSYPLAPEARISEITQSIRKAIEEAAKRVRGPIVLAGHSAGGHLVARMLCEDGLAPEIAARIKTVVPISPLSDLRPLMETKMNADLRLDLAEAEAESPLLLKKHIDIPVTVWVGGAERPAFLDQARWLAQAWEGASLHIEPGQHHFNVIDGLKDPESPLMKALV

SMILES	Km [µM]
CC(=O)Oc1ccc([N+](=O)[O-])cc1 [p-nitrophenyl acetate]	210
CCCC(=O)Oc1ccc([N+](=O)[O-])cc1 [p-nitrophenyl butyrate]	1970 ± 530
CCCCCC(=O)Oc1ccc([N+](=O)[O-])cc1 [p-nitrophenyl hexanoate]	2320 ± 630
